Results from ChEMBL document CHEMBL1134079, “Synthesis and pharmacological evaluation of 2,5-cycloamino-5H-[1]benzopyrano[4,3-d]pyrimidines endowed with in vitro antiplatelet activity” (Bioorg Med Chem Lett, 2001).

Experiments:
Assay type in all cases: functional
Cavia porcellus [1] = species: Cavia porcellus; assay: Evaluated for in vitro antiplatelet activity against guinea pig platelet rich plasma aggregated by arachidonic acid (AA)
Cavia porcellus [2] = species: Cavia porcellus; assay: Evaluated for in vitro antiplatelet activity against guinea pig platelet rich plasma aggregated by […] (ADP)
Cavia porcellus [3] = species: Cavia porcellus; assay: In vitro antiplatelet activity against guinea pig platelet rich plasma aggregated by collagen

SMILES	IC50 (Cavia porcellus [1]; read-out: IC50)	IC50 (Cavia porcellus [2])	IC50 (Cavia porcellus [3]; read-out: IC50)	IC50 (Cavia porcellus [1])	IC50 (Cavia porcellus [3])
Nc1ncc2c(n1)-c1ccccc1OC2N1CCCC1 (stereo not given)	400 µM	750 µM	–	–	–
c1ccc2c(c1)OC(N1CCCC1)c1cnc(N3CCCC3)nc1-2 (stereo not given)	80 µM	200 µM	170 µM	–	–
c1ccc2c(c1)OC(N1CCCCC1)c1cnc(N3CCOCC3)nc1-2 (stereo not given)	–	–	200 µM	–	–
c1ccc2c(c1)OC(N1CCCCC1)c1cnc(N3CCCC3)nc1-2 (stereo not given)	90 µM	–	–	–	–
c1ccc2c(c1)OC(N1CCOCC1)c1cnc(N3CCOCC3)nc1-2 (stereo not given)	95 µM	–	60 µM	–	–
c1ccc2c(c1)OC(N1CCOCC1)c1cnc(N3CCCCC3)nc1-2 (stereo not given)	25 µM	–	60 µM	–	–
c1ccc2c(c1)OC(N1CCCC1)c1cnc(N3CCOCC3)nc1-2 (stereo not given)	430 µM	250 µM	80 µM	–	–
CSc1ncc2c(n1)-c1ccccc1OC2N1CCCC1 (stereo not given)	85 µM	180 µM	–	–	–
c1ccc2c(c1)OC(N1CCOCC1)c1cnc(N3CCCC3)nc1-2 (stereo not given)	75 µM	–	50 µM	–	–
CC(=O)Oc1ccccc1C(=O)O [ASPIRIN]	–	–	–	61 µM	48 µM
